Reference: patent US7022856B2, “Carboline derivatives” (LIlly Icos LLC., priority 2001, dated 2006)

Target: T1, PDE5 (bovine aorta) (Bos taurus, UniProt Q28156)
T1 construct: from tissue; host or cells: bovine aorta
Assay: cGMP-PDE inhibition, one-step assay, enzyme from bovine aorta
Format: biochemical
Conditions: versus bovine aorta (footnote 1)
Procedure: (§1) cGMP-PDE activity of compounds of the present invention was measured using a one-step assay adapted from Wells et al., Biochim. Biophys. Acta, 384, 430 (1975). The reaction medium contained 50 mM Tris-HCl, pH 7.5, 5 mM magnesium acetate. 250 μg/ml 5′-Nucleotidase, 1 mM EGTA, and 0.15 μM 8-[H^3]-cGMP. Unless otherwise indicated, the enzyme used was a human recombinant PDE5 (ICOS Corp., Bothell, Wash.).
(§2) Compounds of the invention were dissolved in DMSO finally present at 2% in the assay.

Row | IC50 | Compound
1 | 440 nM | O=C(c1ccccc1)N1CCc2c([nH]c3ccccc23)C1c1ccc2c(c1)OCO2 (stereo not drawn) [Example 3]
2 | 50 nM | CC(=O)Nc1ccc(C(=O)N2CCc3c([nH]c4ccccc34)C2c2ccc3c(c2)OCO3)cc1 (stereo not drawn) [Example 4, N-{4[1-(1-Benzo[1,3]dioxol-5-yl-1,3,4,9-tetrahydro-β-carboline-2-yl)-methanoyl]phenyl}acetamide]
3 | 180 nM | O=C(c1ccc2nc[nH]c2c1)N1CCc2c([nH]c3ccccc23)C1c1ccc2c(c1)OCO2 (stereo not drawn) [Example 12, 1-(1-Benzo[1,3]dioxol-5-yl-1,3,4,9-tetrahydro-β-carbolin-2-yl)-1-(3H-benzoimidazol-5-yl)methanone]
4 | 200 nM | O=C(c1cc2ccccc2s1)N1CCc2c([nH]c3ccccc23)C1c1ccc(C(F)(F)F)cc1 (stereo not drawn) [Example 14]
5 | 1 nM | O=C(c1ccc(-c2ccccn2)s1)N1CCc2c([nH]c3ccccc23)C1c1ccccc1 (stereo not drawn) [Example 15]
6 | 70 nM | CC(=O)Nc1ccc(C2c3[nH]c4ccccc4c3CCN2C(=O)c2cc3ccccc3s2)cc1 (stereo not drawn) [Example 16]
7 | 250 nM | O=C(c1ccc(-c2ccccn2)s1)N1CCc2c([nH]c3ccccc23)C1c1ccc2c(c1)OCO2 (stereo not drawn) [Example 17]

Target: T2, human recombinant PDE5 (Homo sapiens, UniProt O76074)
T2 construct: host or cells: Saccharomyces cerevisiae strain BJ2-54 (ATCC 74465)
Assay: cGMP-PDE inhibition, one-step assay with human recombinant PDE5
Format: biochemical
Conditions: 0.15 μM 8-[H3]-cGMP, 30 min
Procedure: The compounds of structural formula (I) were tested for an ability to inhibit PDE5. The ability of a compound to inhibit PDE5 activity is related to the IC50 value for the compound, i.e., the concentration of inhibitor required for 50% inhibition of enzyme activity. The IC50 value for compounds pounds of structural formula (I) were determined using recombinant human PDE5.
Recombinant production of human PDE1B, PDE2, PDE4A, PDE4B, PDE4C, PDE4D, PDE5, and PDE7 was carried out similarly to that described in Example 7 of U.S. Pat. No. 5,702,936, incorporated herein by reference, except that the yeast transformation vector employed, which is derived from the basic ADH2 plasmid described in Price et al., Methods in Enzymology, 185, pp. 308–318 (1990), incorporated yeast ADH2 promoter and terminator sequences and the Saccharomyces cerevisiae host was the protease-deficient strain BJ2-54 deposited on Aug. 31, 1998 with the American Type Culture Collection, Manassas, Va., under accession number ATCC 74465. Transformed host cells were grown in 2×SC-leu medium, pH 6.2, with trace metals, and vitamins. After 24 hours, YEP medium-containing glycerol was added to a final concentration of 2×YET/3% glycerol. Approxiately 24 hr later, cells were harvested, washed, and stored at −70° C. […]
Cell pellets (29 g) were thawed on ice with an equal volume of Lysis Buffer (25 mM Tris HCl, pH 8, 5 mM MgCl2, 0.25 mM DTT, 1 mM benzamidine, and 10 μM ZnSO4). Cells were lysed in a Microfluidizer® (Microfluidics Corp.) using nitrogen at 20,000 psi. The lysate was centrifuged and filtered through 0.45 μm disposable filters. The filtrate was applied to a 150 mL column of Q SEPHAROSE® Fast-Flow (Pharmacia). The column was washed with 1.5 volumes of Buffer A (20 mM Bis-Tris Propane, pH 6.8, 1 mM MgCl2, 0.25 mM DTT, 10 μM ZnSO4) and eluted with a step gradient of 125 mM NaCl in Buffer A followed by a linear gradient of 125–1000 mM NaCl in Buffer A. Active fractions from the linear gradient were applied to a 180 mL hydroxyapatite column in Buffer B (20 mM Bis-Tris Propane (pH 6.8), 1 mM MgCl2, 0.25 mM DTT, 10 μM ZnSO4, and 250 mM KCl). After loading, the column was washed with 2 volumes of Buffer B and eluted with a linear gradient of 0–125 mM potassium phosphate in Buffer B. Active fractions were pooled, precipitated with 60% ammonium sulfate, and resuspended in Buffer C (20 mM Bis-Tris Propane, pH 6.8, 125 mM NaCl, 0.5 mM DTT, and 10 μM ZnSO4). The pool was applied to a 140 mL column of SEPHACRYL® S-300 HR and eluted with Buffer C. Active fractions were diluted to 50% glycerol and stored at −20° C.
as §1, §2

Row | IC50 | Compound
8 | 566 nM | O=C(c1ccc2ccccc2c1)N1CCc2c([nH]c3ccccc23)C1c1ccc2c(c1)OCO2 (stereo not drawn) [Example 1, 1-(2H-Benzo[d]1,3-dioxolan-5-yl)(1,2,3,4-tetrahydro-β-carbolin-2-yl)-2-naphthyl ketone]
9 | 710 nM | O=C(c1ccc2ccccc2c1)N1CCc2c([nH]c3ccccc23)[C@H]1c1ccc2c(c1)OCO2 [Example 2, 1-(2H-benzo[d]1,3-dioxolan-5-yl)(1R)(1,2,3,4-tetrahydro-β-carbolin-2-yl)2-naphthyl ketone]
10 | 220 nM | Cc1c(S(=O)(=O)N2CCc3c([nH]c4ccccc34)[C@H]2c2ccc3c(c2)OCO3)sc2ccc(Cl)cc12 [Example 45]
11 | 70 nM | Clc1nc(N2CCc3c([nH]c4ccccc34)C2c2ccc3c(c2)OCO3)c2nc[nH]c2n1 (stereo not drawn) [Example 53]
12 | 560 nM | CN1CCN(c2nccc(N3CCc4c([nH]c5ccccc45)C3c3ccc4c(c3)OCO4)n2)CC1 (stereo not drawn) [Example 54]
13 | 20 nM | c1ccc(-c2nccc(N3CCc4c([nH]c5ccccc45)C3c3ccc4c(c3)OCO4)n2)cc1 (stereo not drawn) [Example 55]
14 | 40 nM | c1csc(-c2nccc(N3CCc4c([nH]c5ccccc45)C3c3ccc4c(c3)OCO4)n2)c1 (stereo not drawn) [Example 56]
15 | 60 nM | c1ccc2c3c([nH]c2c1)C(c1ccc2c(c1)CCO2)N(c1ccnc(-n2ccnc2)n1)CC3 (stereo not drawn) [Example 57]
16 | 30 nM | c1ccc(-c2ccnc(N3CCc4c([nH]c5ccccc45)C3c3ccc4c(c3)CCO4)n2)cc1 (stereo not drawn) [Example 58]
17 | 40 nM | c1cncc(-c2ccnc(N3CCc4c([nH]c5ccccc45)C3c3ccc4c(c3)CCO4)n2)c1 (stereo not drawn) [Example 59]
18 | 70 nM | c1ccc2c3c([nH]c2c1)C(c1ccc2c(c1)CCO2)N(c1nccc(-n2ccnc2)n1)CC3 (stereo not drawn) [Example 60]
19 | 40 nM | c1cncc(-c2nccc(N3CCc4c([nH]c5ccccc45)C3c3ccc4c(c3)CCO4)n2)c1 (stereo not drawn) [Example 61]
20 | 50 nM | c1csc(-c2nccc(N3CCc4c([nH]c5ccccc45)C3c3ccc4c(c3)CCO4)n2)c1 (stereo not drawn) [Example 62]
21 | 40 nM | Cc1nccn1-c1nccc(N2CCc3c([nH]c4ccccc34)C2c2ccc3c(c2)CCO3)n1 (stereo not drawn) [Example 63]
22 | 760 nM | c1ccc2c3c([nH]c2c1)C(c1ccc2c(c1)CCO2)N(c1ccnc(N2CCCCC2)n1)CC3 (stereo not drawn) [Example 64]
23 | 20 nM | c1ccc2c3c([nH]c2c1)C(c1ccc2c(c1)CCO2)N(c1cc(-n2ccnc2)ncn1)CC3 (stereo not drawn) [Example 65]
24 | 340 nM | c1coc(-c2ccnc(N3CCc4c([nH]c5ccccc45)C3c3ccc4c(c3)CCO4)n2)c1 (stereo not drawn) [Example 66]
25 | 70 nM | c1coc(-c2nccc(N3CCc4c([nH]c5ccccc45)C3c3ccc4c(c3)CCO4)n2)c1 (stereo not drawn) [Example 67]
26 | 20 nM | Cc1nccn1-c1cc(N2CCc3c([nH]c4ccccc34)C2c2ccc3c(c2)CCO3)ncn1 (stereo not drawn) [Example 68]

Row | IC50 | Compound
27 | 9 nM | c1cncc(-c2nccc(N3CCc4c([nH]c5ccccc45)C3c3ccc4c(c3)CCO4)n2)c1 (stereo not drawn) [Example 69]
28 | 20 nM | CN(C)CCOc1ccc(-c2ccnc(N3CCc4c([nH]c5ccccc45)C3c3ccc4c(c3)CCO4)n2)cc1 (stereo not drawn) [Example 70]
29 | 20 nM | Cc1ncn(-c2cc(N3CCc4c([nH]c5ccccc45)C3c3ccc4c(c3)CCO4)ncn2)c1C (stereo not drawn) [Example 71]
30 | 10 nM | Oc1ccc(-c2ccnc(N3CCc4c([nH]c5ccccc45)C3c3ccc4c(c3)CCO4)n2)cc1 (stereo not drawn) [Example 72]
31 | 30 nM | Cc1ncn(-c2nccc(N3CCc4c([nH]c5ccccc45)C3c3ccc4c(c3)CCO4)n2)c1C (stereo not drawn) [Example 73]
32 | 40 nM | Cc1cn(-c2ccnc(N3CCc4c([nH]c5ccccc45)C3c3ccc4c(c3)CCO4)n2)cn1 (stereo not drawn) [Example 74]
33 | 7 nM | c1ccc(-c2cc(N3CCc4c([nH]c5ccccc45)C3c3ccc4c(c3)CCO4)ncn2)cc1 (stereo not drawn) [Example 75]
34 | 10 nM | Cc1cn(-c2cc(N3CCc4c([nH]c5ccccc45)C3c3ccc4c(c3)CCO4)ncn2)cn1 (stereo not drawn) [Example 76]
35 | 4 nM | c1cncc(-c2cc(N3CCc4c([nH]c5ccccc45)C3c3ccc4c(c3)CCO4)ncn2)c1 (stereo not drawn) [Example 77]
36 | 60 nM | Cc1nccn1-c1ccnc(N2CCc3c([nH]c4ccccc34)C2c2ccc3c(c2)CCO3)n1 (stereo not drawn) [Example 78]
37 | 4 nM | COc1ccc(-c2cc(N3CCc4c([nH]c5ccccc45)C3c3ccc4c(c3)CCO4)ncn2)cc1 (stereo not drawn) [Example 79]
38 | 50 nM | Oc1ccc(-c2cc(N3CCc4c([nH]c5ccccc45)C3c3ccc4c(c3)CCO4)ncn2)cc1 (stereo not drawn) [Example 80]
39 | 3 nM | CC(=O)Oc1ccc(-c2cc(N3CCc4c([nH]c5ccccc45)C3c3ccc4c(c3)CCO4)ncn2)cc1 (stereo not drawn) [Example 81]
40 | 5 nM | CN(C)CCOc1ccc(-c2cc(N3CCc4c([nH]c5ccccc45)C3c3ccc4c(c3)CCO4)ncn2)cc1 (stereo not drawn) [Example 82]
41 | 82 nM | Cc1ccc(C2c3[nH]c4ccccc4c3CCN2C(=O)c2cc3ccccc3s2)cc1 (stereo not drawn) [Example 83]
42 | 309 nM | O=C(c1cc2ccccc2s1)N1CCc2c([nH]c3ccccc23)C1c1ccc2c(c1)OCO2 (stereo not drawn) [Example 84]
43 | 835 nM | O=C(c1cc2ccccc2s1)N1CCc2c([nH]c3ccccc23)C1c1cccc(Cl)c1 (stereo not drawn) [Example 85]
44 | 900 nM | O=C(c1cc2ccccc2s1)N1CCc2c([nH]c3ccccc23)C1c1ccccc1 (stereo not drawn) [Example 86]
45 | 1010 nM | c1ccc2c3c([nH]c2c1)C(c1ccc2c(c1)OCO2)N(c1nccc(N2CCOCC2)n1)CC3 (stereo not drawn) [Example 87]

Test system: not given
Assay: not given
Conditions: not given

Row | melting point | Compound
46 | 248 to 249 °C | O=C(c1ccc2ccccc2c1)N1CCc2c([nH]c3ccccc23)C1c1ccc2c(c1)OCO2 (stereo not drawn) [Example 1, 1-(2H-Benzo[d]1,3-dioxolan-5-yl)(1,2,3,4-tetrahydro-β-carbolin-2-yl)-2-naphthyl ketone]
47 | 285 °C | O=C(c1ccc2ccccc2c1)N1CCc2c([nH]c3ccccc23)[C@H]1c1ccc2c(c1)OCO2 [Example 2, 1-(2H-benzo[d]1,3-dioxolan-5-yl)(1R)(1,2,3,4-tetrahydro-β-carbolin-2-yl)2-naphthyl ketone]
48 | 139 to 143 °C | Cc1c(S(=O)(=O)N2CCc3c([nH]c4ccccc34)[C@H]2c2ccc3c(c2)OCO3)sc2ccc(Cl)cc12 [Example 45]
